Columns and labels:
[1] = target: T1, PRMT5 (Homo sapiens, UniProt O14744); test: PRMT5 IC50 assay in the presence of SAM as cofactor; type: biochemical
T1 construct: purchased Viva (custom protein)
Method in brief: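 For the SAM-containing format, dividing IC50 by 1.5 yields Ki; for the MTA-containing format the divisor is 13.5. A third format without cofactor gives IC50 alone.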

[2] = target: T1, PRMT5; test: PRMT5 IC50 assay in the presence of MTA as cofactor; type: biochemical; conditions: for IC50: PRMT5, MTA as cofactor; for SAM/MTA Ratio: ratio between Ki in the presence of SAM and Ki in the presence of MTA
Method in brief: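 IC50 values were measured against human PRMT5 with SAM, with MTA, or with no cofactor. Ki was derived from IC50 as Ki=IC50/1.5 with SAM and Ki=IC50/13.5 with MTA, and the Ki(SAM)/Ki(MTA) ratio was then taken.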

[3] = test system: HAP1 MTAP-intact; test: SDMA in-cell western assay, HAP1 MTAP-intact cell line; type: cell-based; conditions: Homo sapiens
Excerpt: Table 1a also indicates IC50 values in an MTAP-isogenic cell line pair for exemplary compounds in an SDMA in-cell western assay (columns 7-8). HAP1 MTAP-intact is a cell line in which endogenous levels of MTAP are expressed, and HAP1 MTAP-deleted is an MTAP-null cell line. […] Compounds with a ratio in the SDMA in-cell western assay of equal to or greater than 3 fold are considered MTAP-selective.

[4] = test system: HAP1 MTAP-deleted; test: SDMA in-cell western assay, HAP1 MTAP-deleted cell line; type: cell-based; conditions: for IC50: Homo sapiens, HAP1 MTAP-deleted cell line; for MTAP Intact/Deleted Ratio: IC50 ratio HAP1 MTAP-intact / HAP1 MTAP-deleted
Excerpt: Table 1a also indicates IC50 values in an MTAP-isogenic cell line pair for exemplary compounds in an SDMA in-cell western assay (columns 7-8). HAP1 MTAP-intact is a cell line in which endogenous levels of MTAP are expressed, and HAP1 MTAP-deleted is an MTAP-null cell line.

[5] = target: T1, PRMT5; test: PRMT5 IC50 assay with no cofactor; type: biochemical; conditions: read-out: No Co-factor IC50
Method in brief: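 Values reflect IC50 (μM) on human PRMT5 under three cofactor states. Selectivity is derived as the quotient of SAM-state Ki over MTA-state Ki, with each Ki obtained from its IC50.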

T1 sequence (O14744 whole entry): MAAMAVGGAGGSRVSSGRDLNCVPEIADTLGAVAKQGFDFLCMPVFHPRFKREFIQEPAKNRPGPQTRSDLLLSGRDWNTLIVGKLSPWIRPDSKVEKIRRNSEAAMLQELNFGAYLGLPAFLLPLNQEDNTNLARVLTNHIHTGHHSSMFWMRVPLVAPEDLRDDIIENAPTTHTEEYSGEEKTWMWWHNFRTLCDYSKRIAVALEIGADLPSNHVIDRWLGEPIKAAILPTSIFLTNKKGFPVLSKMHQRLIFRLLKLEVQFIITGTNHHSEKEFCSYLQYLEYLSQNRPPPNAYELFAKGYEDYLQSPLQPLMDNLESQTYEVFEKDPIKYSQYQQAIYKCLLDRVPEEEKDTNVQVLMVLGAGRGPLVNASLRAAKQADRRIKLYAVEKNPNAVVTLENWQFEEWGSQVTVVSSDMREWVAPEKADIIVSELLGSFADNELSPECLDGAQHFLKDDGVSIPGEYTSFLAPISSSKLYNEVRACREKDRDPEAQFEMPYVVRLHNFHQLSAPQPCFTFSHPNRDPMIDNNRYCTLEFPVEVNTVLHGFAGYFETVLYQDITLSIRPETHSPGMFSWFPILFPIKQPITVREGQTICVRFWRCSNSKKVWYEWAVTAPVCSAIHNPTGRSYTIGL
T1 sequence (Q9BQA1 whole entry partner): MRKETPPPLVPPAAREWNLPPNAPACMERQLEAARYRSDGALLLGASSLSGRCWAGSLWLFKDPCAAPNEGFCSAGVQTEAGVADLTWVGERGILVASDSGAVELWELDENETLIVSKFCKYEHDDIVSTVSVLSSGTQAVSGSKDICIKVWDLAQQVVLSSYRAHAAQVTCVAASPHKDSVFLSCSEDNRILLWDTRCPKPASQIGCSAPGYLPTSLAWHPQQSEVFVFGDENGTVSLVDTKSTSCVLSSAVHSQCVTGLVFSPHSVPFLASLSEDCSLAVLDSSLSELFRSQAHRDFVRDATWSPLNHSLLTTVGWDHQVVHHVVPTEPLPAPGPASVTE

SMILES | IC50 [1] [µM] | IC50 [2] [µM] | IC50 [3] [µM] | IC50 [4] [µM] | IC50 [5] [µM] | SAM/MTA Ratio [2] | MTAP Intact/Deleted Ratio [4]
CC(=O)N1CCC(Nc2cc(C(=O)NC[C@H](O)CN3CCc4cc(OCc5ccnn5C)ccc4C3)ncn2)CC1 [Compound 140, 6-[(1-acetyl-4-piperidyl)amino]-N-[(2S)-2-hydroxy-3-[6-[(2-methylpyrazol-3-yl)methoxy]-3N-dihydro-1H-isoquinolin-2-yl]propyl]pyrimidine-4-carboxamide] | 0.5 to 5 | 0.05 to 0.5 | ≥ 10 | ≥ 10 | ≥ 5 | A (a Ki ratio greater than or equal to 10 fold between the Ki in the presence of SAM and the Ki in the presence of MTA) | C* (an IC50 ratio of less than 3 fold between the IC50 in the HAP1 MTAP-intact cell line and the HAP1 MTAP-deleted cell line)
Cc1c(OCc2cnco2)ccc2c1CCN(C[C@@H](O)CNC(=O)c1ccnc(NC3CCC3)c1)C2 [Compound 179, 2-(cyclobutylamino)-N-[(2S)-2-hydroxy-3-[5-methyl-6-(oxazol-5-ylmethoxy)-3,4-dihydro-1H-isoquinolin-2-yl]propyl]pyridine-4-carboxamide] | 0.05 to 0.5 | 0.05 to 0.5 | ≥ 10 | 1 to 10 | ≥ 5 | A (a Ki ratio greater than or equal to 10 fold between the Ki in the presence of SAM and the Ki in the presence of MTA) | C* (an IC50 ratio of less than 3 fold between the IC50 in the HAP1 MTAP-intact cell line and the HAP1 MTAP-deleted cell line)
O=C(NC[C@H](O)CN1CCc2c(ccc(OCc3cnco3)c2Cl)C1)c1ccnc(NC2CCC2)c1 [Compound 194, N-[(2S)-3-[5-chloro-6-(oxazol-5-ylmethoxy)-3,4-dihydro-1H-isoquinolin-2-yl]-2-hydroxy-propyl]-2-(cyclobutylamino)pyridine-4-carboxamide] | 0.5 to 5 | 0.05 to 0.5 | ≥ 10 | ≥ 10 | ≥ 5 |  | C* (an IC50 ratio of less than 3 fold between the IC50 in the HAP1 MTAP-intact cell line and the HAP1 MTAP-deleted cell line)
CC(=O)N1CCC(Nc2cc(C(=O)NC[C@H](O)CN3CCc4c(ccc(OCc5cnco5)c4C)C3)ncn2)CC1 [Compound 198, 6-[(1-acetyl-4-piperidyl)amino]-N-[(2S)-2-hydroxy-3-[5-methyl-6-(oxazol-5-ylmethoxy)-3,4-dihydro-1H-isoquinolin-2-yl]propyl]pyrimidine-4-carboxamide] | 0.05 to 0.5 | 0.05 to 0.5 | ≥ 10 | 1 to 10 | ≥ 5 | A (a Ki ratio greater than or equal to 10 fold between the Ki in the presence of SAM and the Ki in the presence of MTA) | C* (an IC50 ratio of less than 3 fold between the IC50 in the HAP1 MTAP-intact cell line and the HAP1 MTAP-deleted cell line)
CC(=O)N1CCC(Nc2cc(C(=O)NC[C@H](O)CN3CCc4cc(OCc5cn[nH]c5)ccc4C3)ncn2)CC1 [Compound 201, 6-[(1-acetyl-4-piperidyl)amino]-N-[(2S)-2-hydroxy-3-[6-(1H-pyrazol-4-ylmethoxy)-3,4-dihydro-1H-isoquinolin-2-yl]propyl]pyrimidine-4-carboxamide] | 0.05 to 0.5 | 0.05 to 0.5 | 1 to 10 | < 1 | 0.5 to 5 | A (a Ki ratio greater than or equal to 10 fold between the Ki in the presence of SAM and the Ki in the presence of MTA) | C* (an IC50 ratio of less than 3 fold between the IC50 in the HAP1 MTAP-intact cell line and the HAP1 MTAP-deleted cell line)
CC(=O)N1CCC(Nc2cc(C(=O)NC[C@H](O)CN3CCc4c(ccc(OCc5ccnn5C)c4C)C3)ncn2)CC1 [Compound 203] | 0.5 to 5 | 0.5 to 5 | ≥ 10 | ≥ 10 | ≥ 5 | A (a Ki ratio greater than or equal to 10 fold between the Ki in the presence of SAM and the Ki in the presence of MTA) | C* (an IC50 ratio of less than 3 fold between the IC50 in the HAP1 MTAP-intact cell line and the HAP1 MTAP-deleted cell line)
O=C(NC[C@H](O)CN1CCc2cc(OCc3c[nH]nn3)ccc2C1)c1ccnc(NC2CCC2)c1 [Compound 207, (S)—N-(3-(6-((1H-1,2,3-triazol-4-yl)methoxy)-3,4-dihydroisoquinolin-2(1H)-yl)-2-hydroxypropyl)-2-(cyclobutylamino)isonicotinamide] | 0.5 to 5 | 0.5 to 5 | < 1 | < 1 | ≥ 5 | A (a Ki ratio greater than or equal to 10 fold between the Ki in the presence of SAM and the Ki in the presence of MTA) | C* (an IC50 ratio of less than 3 fold between the IC50 in the HAP1 MTAP-intact cell line and the HAP1 MTAP-deleted cell line)

The next lines start with results.

IC50 [1] [µM] | IC50 [2] [µM] | IC50 [3] [µM] | IC50 [4] [µM] | IC50 [5] [µM] | SMILES | SAM/MTA Ratio [2] | MTAP Intact/Deleted Ratio [4]
0.05 to 0.5 | 0.05 to 0.5 | 1 to 10 | < 1 | ≥ 5 | CC(=O)N1CCC(Nc2cc(C(=O)NC[C@H](O)CN3CCc4cc(OCc5ocnc5C)ccc4C3)ncn2)CC1 [Compound 219, (S)-6-((1-acetylpiperidin-4-yl)amino)-N-(2-hydroxy-3-(6-((4-methyloxazol-5-yl)methoxy)-3,4-dihydroisoquinolin-2(1H)-yl)propyl)pyrimidine-4-carboxamide] | A (a Ki ratio greater than or equal to 10 fold between the Ki in the presence of SAM and the Ki in the presence of MTA) | B* (an IC50 ratio greater than or equal to 3 fold but lower than 10 fold between the IC50 in the HAP1 MTAP-intact cell line and the HAP1 MTAP-deleted cell line)
0.05 to 0.5 | 0.05 to 0.5 | ≥ 10 | 1 to 10 | ≥ 5 | CC(=O)N1CCC(Nc2cc(C(=O)NC[C@H](O)CN3CCc4cc(OCc5conc5C)ccc4C3)ncn2)CC1 [Compound 233, (S)-6-((1-acetylpiperidin-4-yl)amino)-N-(2-hydroxy-3-(6-((3-methylisoxazol-4-yl)methoxy)-3,4-dihydroisoquinolin-2(1H)-yl)propyl)pyrimidine-4-carboxamide] | A (a Ki ratio greater than or equal to 10 fold between the Ki in the presence of SAM and the Ki in the presence of MTA) | C* (an IC50 ratio of less than 3 fold between the IC50 in the HAP1 MTAP-intact cell line and the HAP1 MTAP-deleted cell line)
0.05 to 0.5 | 0.05 to 0.5 | ≥ 10 | 1 to 10 | 0.5 to 5 | CC(=O)N1CCC(Nc2cc(C(=O)NC[C@H](O)CN3CCc4c(ccc(OCc5cnco5)c4Cl)C3)ncn2)CC1 [Compound 241, (S)-6-((1-acetylpiperidin-4-yl)amino)-N-(3-(5-chloro-6-(oxazol-5-ylmethoxy)-3,4-dihydroisoquinolin-2(1H)-yl)-2-hydroxypropyl)pyrimidine-4-carboxamide] | A (a Ki ratio greater than or equal to 10 fold between the Ki in the presence of SAM and the Ki in the presence of MTA) | C* (an IC50 ratio of less than 3 fold between the IC50 in the HAP1 MTAP-intact cell line and the HAP1 MTAP-deleted cell line)

From patent US11986471B2, “Compounds and methods of use” (Tango Therapeutics, Inc., priority 2018, dated 2024)
